Experimental findings from article PMC11729550, “Discovery of indole analogue Tc3 as a potent pyroptosis inducer and identification of its combination strategy against hepatic carcinoma” (Theranostics, 2025) are described below.

One data set deals with PLC-PRF5 cells. Nature of the data set: Anti-tumor activity assay (IC50 value), cells counted after three days. The format is cell-based. The note with it: Homo sapiens, PLC-PRF-5, 72 h. From the text: (§1) The cells were counted with hemocytometer.
Data set [1] deals with AML-12 cells. Nature of the data set: Dose-response growth inhibition of liver parenchymal cells. The format is cell-based. To be noted: AML12; mouse liver parenchymal cells.
Excerpt: as §1
(E) Dose-response curves for Tc3 inhibiting the growth of AML-12 cells.

In data set [2] the test system is HepG2 cells. Nature of the data set: Flow cytometry of propidium iodide and annexin V-FITC staining. The format is cell-based, human. To be noted: HepG2, 4 μM. From the text: (§2) Figure 2 Cytotoxic effect of Tc3 on human hepatic carcinoma cells in vitro. […] (B-C) Cell viability rates of HepG2 (B) and SK-Hep1 (C) cells treated with Tb7, Tc1, Tc3, Tc4 and other clinical chemotherapy drugs. (D-F) Flow cytometry of propidium iodide and annexin V-fluorescein isothiocyanate (FITC)-stained HepG2 cells (D). Statistical analysis of the early apoptotic cells (E) and late apoptotic cells (F). (G-I) Flow cytometry of propidium iodide and annexin V-fluorescein isothiocyanate (FITC)-stained AML-12 cells (G). Statistical analysis of the early apoptotic cells (H) and late apoptotic cells (I). Data are presented as mean ± SD of three independent biological experiments. *p < 0.05, **p < 0.01, ***p < 0.001 and ****p < 0.0001, ns, no significant.

In data set [3] the test system is AML-12 cells. Described as above. The format is cell-based, mouse.
Excerpt: as §2

A short description of data set [4]: Hydrolytic stability in phosphate buffer (HPLC). The format is physicochemical. To be noted: phosphate buffer of PH 7.4 over 150 minutes. On the procedure:
The stability of Tc3 was evaluated by an UltiMate 3000 Dual-Gradient HPLC system (Sunnyvale, CA, USA). The samples of solution were chromatographed on ZORBAX Eclipse XDB-C18 column(5 µm, 4.6 × 150 mm, Agela Technologies), using an eluent composed of: water (95%) and acetonitrile (5%) at a flow rate of 1.0 mL/min. […] The hydrolysis of Tc3 was carried out in a phosphate buffer of PH 7.4 (50 ug/ml, initial concentration of 5 mM in methanol) over 150 minutes.

In the next data set the test system is Balb/c mice. Nature of the data set: Subchronic toxicity test. The format is in vivo. On the procedure:
And the organ tissues of mice were collected for further H&E staining.
The formalin‐fixed and paraffin‐embedded tissues were cut into 5 μm sections. The sections were firstly soaked in xylene for removing paraffin and soaked in alcohol at decreasing concentration for tapping water. In the H&E staining assay, the sections were stained in Harris’s hematoxylin reagent and eosin reagent in turn. In the IHC staining, the sections were conducted antigen retrieval process and blocked with normal goat serum. Next, sections were incubated with the primary antibodies overnight and incubated with HRP-conjugated secondary antibodies. The tissue images were captured by a microscope.

Another data set deals with pLKO.1 HepG2 cells. Nature of the data set: Dose-response growth inhibition, control knockdown cells. Type of data set: cell-based. The note with it: Homo sapiens. On the procedure: as §1
Briefly, the pLKO.1 or shRNA plasmids with psPAX2 and PMD2.G were transfected into HEK-293T cells via DNA transfection reagent (SignaGen®Laboratories, SL100688). And the cell supernatant contained Lenti-virus was collected after 24 hours. The Lenti-virus of shRNAs were used to infect the hepatic carcinoma cells and the stable-transfection cell lines were screened by puromycin (1 μg/mL) (Solarbio, P8230).

In data set [5] the test system is HepG2 cells. Nature of the data set: RNA sequencing analysis. The format is cell-based, human. To be noted: HepG2, 4 μM, 24h, versus DMSO. On the procedure:
HepG2 cells were treated with dimethyl sulfoxide (DMSO) or Tc3 (4 μM) for 24h. And the total RNA was isolated using TRIzol (Solarbio, R1100). Next, the samples were processed and the RNA libraries were constructed by APTBIO company (Shanghai, China). Paired-end reads were aligned to a reference genome index which created using HISAT2, with read assignments to each gene quantified with feature counts. Gene expression was quantified using Transcripts Per Million (TPM). We identified Differentially Expressed Genes (DEGs) using the DESeq2 package in R, defining DEGs as those with an absolute log2 fold change greater than 1 and an adjusted p-value less than 0.05. We performed Gene Ontology (GO) and KEGG pathway enrichment analyses using the "cluster Profiler" package in R. GO terms and KEGG pathways with an adjusted P-value less than 0.05 were statistically significant. Our results were visualized using the ggplot2 and fact extra packages in R.

For a further data set, the system named is GSDME. Nature of the data set: Western blot of GSDME activation. The format is cell-based, human. The note with it: HepG2 and SK-Hep1 cells. On the procedure: (§3) The whole-cell protein was extracted by RIPA lysis buffer contained with protease and phosphatase inhibitor cocktail (MCE, HY-K0010) from cells treated by indole analogues. Proteins were separated by sodium dodecyl sulfate-polyacrylamide gel electrophoresis (SDS-PAGE) gel, and then blotted onto polyvinylidene difluoride membrane (Millipore, IPVH00010). The membranes were incubated with the primary antibodies and the following horseradish peroxidase-conjugated (HRP) secondary antibodies. Next, membranes were washed and developed by ECL regent (Millipore, WBKLS0500).

A further data set concerns hepatic carcinoma cells. Nature of the data set: Cell migration assay (wound scratch, transwell). The format is cell-based, human. The note with it: HepG2 and SK-Hep1, 0-4 μM. On the procedure: For transwell assay, the hepatic carcinoma cells were seeded in wells and put wells into 24-well plates pre-loaded DMEM medium supplemented with 20% FBS. The wells were added only DMEM medium with Tc3. The cells migrated through the membrane of wells in two days. Next, the wells were fixed by paraformaldehyde, stained by crystal violet and photographed for statistical analysis. For cell scratch assay, the hepatic carcinoma cells were seeded in 6-well plates and treated with Tc3. The scratch lines were obtained before the cell fusion reached almost 100%, and the cells were photographed at time gradient points for statistical analysis.

The test system of the next data set is PRDX1. Nature of the data set: Western blot of PRDX1. The format is cell-based, human. The note with it: hepatic carcinoma cells. On the procedure:
as §3

The next data set deals with PERK. Nature of the data set: Western blot of ER stress responders. Type of data set: cell-based, human. The note with it: HepG2 and SK-Hep1 cells. On the procedure: as §3

Turning to `CC(C)[C@H](N)C(=O)NCCCn1cc(/C=C2\S/C(=N\c3ccc(N4CCOCC4)cc3)N(Cc3ccc(F)cc3)C2=O)c2ccccc21` [Tc3], inhibition in the data set on PLC-PRF5 cells was half-maximal at 1790 nM (IC50). In the data set with AML-12 cells [1], this molecule yielded an IC50 of 6140 nM. The “cell death by annexin V / propidium iodide flow cytometry” value in the data set with HepG2 cells [2] is “severe cell death”. The “cell death by annexin V / propidium iodide flow cytometry” value in the data set with AML-12 cells [3] is “not observed”. In [4], the stability to hydrolysis result is listed as “no changes”. Moreover, in the data set on Balb/c mice (60 mg/kg), the “glomerular structure of the kidney (HE staining)” value is recorded as “slightly damaged”; the “jejunum crypts and villi (HE staining)” value is given as “severely disrupted”. Further, in the data set on Balb/c mice (60 mg/kg i.p.), the “weight and health state” value is “lower weight and worse health state”. In the data set on Balb/c mice (i.p. every two days, day 14), the “lung findings (HE staining)” value was “alveolar wall thickening and increased numbers of lymphocytes”; the “toxicity to the heart, liver, spleen and stomach (HE staining)” value is on record as “no significant toxicity”. The IC50 with pLKO.1 HepG2 cells was determined as 2220 nM. Further, in the data set with HepG2 cells [5], the “Number of down-regulated gene” value was 38, the “Number of up-regulated gene” value stood at 182 and the “number of DEGs” value worked out at 220. Moreover, the “GSDME activation / cleavage (western blotting)” value in the data set with GSDME is “promoted the cleavage of GSDME”. Besides, the “cell migration rates (wound scratch, transwell)” value with hepatic carcinoma cells is given as “reduced cell migration rates”. The “expression of PRDX1” value in the data set on PRDX1 was “obviously reduced”. Also, the “PERK activation (western blotting)” value in the data set with PERK is “activated”.
